We go through ten compounds from patent US10004701B2, “Methods and compositions for treating infection” (UNIVERSITY OF ROCHESTER, priority 2012, dated 2018).

Molecules are shown by their SMILES. Structures can show the parent of a compound that is named as a salt. Where two headings read alike, the source gives them in different places.

Assay in all cases: AK assay 384-well format, Prestwick library screening
The test system of one assay is E. coli. It is filed as cell-based, Escherichia coli. The note with it: 50 μM final drug concentration; for fold induction at 50 µM: Escherichia coli, 3 h.
The next assay deals with E. faecium. It is filed as cell-based, Enterococcus faecium. The note with it: 50 μM final drug concentration; for fold induction at 50 µM: Enterococcus faecium, 3 h.
For the next assay, the system named is P. aeruginosa. The format is cell-based, Pseudomonas aeruginosa. The following applies: 50 μM final drug concentration; for fold induction at 50 µM: Pseudomonas aeruginosa, 3 h.
Assay [1] has as its system S. aureus strain USA300-0114. The format is cell-based, Staphylococcus aureus. The following applies: 50 μM final drug concentration; for fold induction at 50 µM: Staphylococcus aureus, USA300, 3 h.
The test system of the next assay is K. pneumoniae. It is filed as cell-based, Klebsiella pneumoniae. The note with it: 50 μM final drug concentration; for fold induction at 50 µM: Klebsiella pneumoniae, 3 h.
Another assay deals with E. cloacae. The format is cell-based, Enterobacter cloacae. The following applies: 50 μM final drug concentration; for fold induction at 50 µM: Enterobacter cloacae, 3 h.
The test system of assay [2] is A. baumannii strain 98-37-09. It is filed as cell-based, Acinetobacter baumannii. The note with it: 50 μM final drug concentration; for fold induction at 50 µM: Acinetobacter baumannii, 983709, 3 h.
The mark [3] stands for this setting: 384-well format, cutoff for positive-scoring molecules 3-fold increase, read-out: AK-based Prestwick Library Screening Results, E. coli (increase in extracellular AK activity).
Where [4] appears, read: 384-well format, cutoff for positive-scoring molecules 3-fold increase, read-out: AK-based Prestwick Library Screening Results, E. faecium (increase in extracellular AK activity).
[5] abbreviates: 384-well format, cutoff for positive-scoring molecules 3-fold increase, read-out: AK-based Prestwick Library Screening Results, P. aeruginosa (increase in extracellular AK activity).
Setting [6] is: 384-well format, cutoff for positive-scoring molecules 3-fold increase, read-out: AK-based Prestwick Library Screening Results, S. aureus (increase in extracellular AK activity).
[7] abbreviates: 384-well format, cutoff for positive-scoring molecules 3-fold increase, read-out: AK-based Prestwick Library Screening Results, K. pneumoniae (increase in extracellular AK activity).
[8] abbreviates: 384-well format, cutoff for positive-scoring molecules 3-fold increase, read-out: AK-based Prestwick Library Screening Results, E. cloacae (increase in extracellular AK activity).
Where [9] appears, read: 384-well format, cutoff for positive-scoring molecules 3-fold increase, read-out: AK-based Prestwick Library Screening Results, A. baumannii (increase in extracellular AK activity).
[10] abbreviates: planktonic, cutoff for positive 3-fold increase, read-out: AK-based Prestwick Library Screening Results, E. coli (fold increase in extracellular AK activity).
[11] abbreviates: planktonic, cutoff for positive 3-fold increase, read-out: AK-based Prestwick Library Screening Results, E. faecium (fold increase in extracellular AK activity).
Setting [12] is: planktonic, cutoff for positive 3-fold increase, read-out: AK-based Prestwick Library Screening Results, P. aeruginosa (fold increase in extracellular AK activity).
Where [13] appears, read: planktonic, cutoff for positive 3-fold increase, read-out: AK-based Prestwick Library Screening Results, S. aureus (fold increase in extracellular AK activity).
The mark [14] stands for this setting: planktonic, cutoff for positive 3-fold increase, read-out: AK-based Prestwick Library Screening Results, K. pneumoniae (fold increase in extracellular AK activity).
[15] abbreviates: planktonic, cutoff for positive 3-fold increase, read-out: AK-based Prestwick Library Screening Results, E. cloacae (fold increase in extracellular AK activity).
Where [16] appears, read: planktonic, cutoff for positive 3-fold increase, read-out: AK-based Prestwick Library Screening Results, A. baumannii (fold increase in extracellular AK activity).

For `O=C(O)c1cc(/N=N/c2ccc(S(=O)(=O)Nc3ccccn3)cc2)ccc1O` [Sulfasalazine], the fold induction at 50 µM in the assay on E. coli (planktonic E. coli, cutoff for positive-scoring molecules 3-fold increase, read-out: AK-based Prestwick Library Screening Results, E. coli (increase in extracellular AK activity)) was 0.8; in the assay on E. faecium (planktonic E. faecium, cutoff for positive-scoring molecules 3-fold increase, read-out: AK-based Prestwick Library Screening Results, E. faecium (increase in extracellular AK activity)) it was 0.9; in the assay on P. aeruginosa (planktonic P. aeruginosa, cutoff for positive-scoring molecules 3-fold increase, read-out: AK-based Prestwick Library Screening Results, P. aeruginosa (increase in extracellular AK activity)) it was 0.8; in assay [1] (planktonic S. aureus, cutoff for positive-scoring molecules 3-fold increase, read-out: AK-based Prestwick Library Screening Results, S. aureus (increase in extracellular AK activity)) it was 0.8; in the assay on K. pneumoniae (planktonic K. pneumoniae, cutoff for positive-scoring molecules 3-fold increase, read-out: AK-based Prestwick Library Screening Results, K. pneumoniae (increase in extracellular AK activity)) it was 0.7; in the assay with E. cloacae (planktonic E. cloacae, cutoff for positive-scoring molecules 3-fold increase, read-out: AK-based Prestwick Library Screening Results, E. cloacae (increase in extracellular AK activity)), 1.1. Further, the fold induction at 50 µM in assay [2] (planktonic A. baumannii, cutoff for positive-scoring molecules 3-fold increase, read-out: AK-based Prestwick Library Screening Results, A. baumannii (increase in extracellular AK activity)) was determined as 1.1.

In the case of `NS(=O)(=O)c1cc2c(cc1C(F)(F)F)NCNS2(=O)=O` [Hydroflumethiazide], the fold induction at 50 µM in the assay on E. coli (setting [3]) is 0.7; in the assay with E. faecium (setting [4]) it was 0.9; in the assay on P. aeruginosa (setting [5]), 0.5; in assay [1] (setting [6]), 0.5; with K. pneumoniae (setting [7]) it was 0.5; in the assay on E. cloacae (setting [8]), 0.7. Also, in assay [2] (setting [9]), the fold induction at 50 µM is 0.7.

For `CCN(CC)CCOCCOC(=O)C1(c2ccccc2)CCCC1` [Carbetapentane citrate], the fold induction at 50 µM in the assay with E. coli (setting [10]) was 1.4; in the assay on E. faecium (setting [11]) it was 1; with P. aeruginosa (setting [12]) it was 1.2; in assay [1] (setting [13]), 1.1; in the assay with K. pneumoniae (setting [14]), 1; in the assay with E. cloacae (setting [15]), 1.4. Also, in assay [2] (setting [16]), the fold induction at 50 µM stood at 1.4.

For the compound `O=C(Nc1ccccc1)OCC(CN1CCCCC1)OC(=O)Nc1ccccc1` (stereo not shown) [Diperodon hydrochloride], the fold induction at 50 µM was determined as 1.4 in the assay on E. coli (planktonic E. coli, 384-well, cutoff for positive-scoring molecules 3-fold increase, read-out: AK-based Prestwick Library Screening Results: E. coli (increase in extracellular AK activity)); 1.1 in the assay on E. faecium (planktonic E. faecium, 384-well, cutoff for positive-scoring molecules 3-fold increase, read-out: AK-based Prestwick Library Screening Results: E. faecium (increase in extracellular AK activity)); 1.1 in the assay on P. aeruginosa (planktonic P. aeruginosa, 384-well, cutoff for positive-scoring molecules 3-fold increase, read-out: AK-based Prestwick Library Screening Results: P. aeruginosa (increase in extracellular AK activity)); 1.2 in assay [1] (planktonic S. aureus, 384-well, cutoff for positive-scoring molecules 3-fold increase, read-out: AK-based Prestwick Library Screening Results: S. aureus (increase in extracellular AK activity)); 0.9 with K. pneumoniae (planktonic K. pneumoniae, 384-well, cutoff for positive-scoring molecules 3-fold increase, read-out: AK-based Prestwick Library Screening Results: K. pneumoniae (increase in extracellular AK activity)); 1.4 with E. cloacae (planktonic E. cloacae, 384-well, cutoff for positive-scoring molecules 3-fold increase, read-out: AK-based Prestwick Library Screening Results: E. cloacae (increase in extracellular AK activity)). Moreover, in assay [2] (planktonic A. baumannii, 384-well, cutoff for positive-scoring molecules 3-fold increase, read-out: AK-based Prestwick Library Screening Results: A. baumannii (increase in extracellular AK activity)), the fold induction at 50 µM worked out at 1.1.

As for `CC(=O)O[C@H]1CC[C@@]2(C)C(=CC[C@@H]3[C@@H]2CC[C@]2(C)C(=O)CC[C@@H]32)C1` [Dehydroisoandosterone 3-acetate], in the assay on E. coli ([…]), the “AK-based Prestwick Library Screening Results, E. coli (fold increase in extracellular AK activity)” value was 1.0. The “AK-based Prestwick Library Screening Results, E. faecium (fold increase in extracellular AK activity)” value in the assay on E. faecium ([…]) was determined as 1.1. Also, in the assay on P. aeruginosa ([…]), the “AK-based Prestwick Library Screening Results, P. aeruginosa (fold increase in extracellular AK activity)” value is given as 1.1. In addition, the “AK-based Prestwick Library Screening Results, S. aureus (fold increase in extracellular AK activity)” value in assay [1] ([…]) was determined as 0.8. For the same compound, the “AK-based Prestwick Library Screening Results, K. pneumoniae (fold increase in extracellular AK activity)” value in the assay on K. pneumoniae ([…]) was determined as 0.9. The “AK-based Prestwick Library Screening Results, E. cloacae (fold increase in extracellular AK activity)” value with E. cloacae ([…]) came to 1.7. In addition, the “AK-based Prestwick Library Screening Results, A. baumannii (fold increase in extracellular AK activity)” value in assay [2] ([…]) is 1.1.

Take `CC(=O)[C@H]1CC[C@H]2[C@@H]3CC=C4C[C@@H](O)CC[C@]4(C)[C@H]3CC[C@]12C` [Pregnenolone]: the “AK-based Prestwick Library Screening Results, E. coli (fold increase in extracellular AK activity)” value with E. coli (planktonic, […]) is 1.4. In addition, the “AK-based Prestwick Library Screening Results, E. faecium (fold increase in extracellular AK activity)” value in the assay on E. faecium (planktonic, […]) is 1.1. In addition, the “AK-based Prestwick Library Screening Results, P. aeruginosa (fold increase in extracellular AK activity)” value in the assay with P. aeruginosa (planktonic, […]) is reported as 1.1. Further, in assay [1] (planktonic, […]), the “AK-based Prestwick Library Screening Results, S. aureus (fold increase in extracellular AK activity)” value came to 1.1. For the same compound, the “AK-based Prestwick Library Screening Results, K. pneumoniae (fold increase in extracellular AK activity)” value with K. pneumoniae (planktonic, […]) is given as 1.1. For the same compound, in the assay on E. cloacae (planktonic, […]), the “AK-based Prestwick Library Screening Results, E. cloacae (fold increase in extracellular AK activity)” value amounted to 1.5. The “AK-based Prestwick Library Screening Results, A. baumannii (fold increase in extracellular AK activity)” value in assay [2] (planktonic, […]) worked out at 1.3.

Regarding `CN1CCN(CC(=O)N2c3ccccc3C(=O)Nc3cccnc32)CC1` [Pirenzepine dihydrochloride], the fold induction at 50 µM with E. coli (setting [3]) was 1.4; in the assay with E. faecium (setting [4]) it was 1.1; in the assay on P. aeruginosa (setting [5]), 1; in assay [1] (setting [6]) it was 1; in the assay with K. pneumoniae (setting [7]) it was 1; in the assay on E. cloacae (setting [8]), 1.4. The fold induction at 50 µM in assay [2] (setting [9]) amounted to 1.1.

With `c1ccc2[nH]c(-c3cscn3)nc2c1` [Tiabendazole], the fold induction at 50 µM with E. coli (setting [10]) was 0.6; with E. faecium (setting [11]) it was 0.5; in the assay with P. aeruginosa (setting [12]) it was 0.6; in assay [1] (setting [13]), 0.6; in the assay on K. pneumoniae (setting [14]), 0.4; in the assay on E. cloacae (setting [15]), 1.3. Also, in assay [2] (setting [16]), the fold induction at 50 µM worked out at 0.5.

Regarding `COC(=O)C1=C(C)NC(C)=C(C(=O)OCCN(C)Cc2ccccc2)C1c1cccc([N+](=O)[O-])c1` (stereo not shown) [Nicardipine hydrochloride], the fold induction at 50 µM was determined as 1.2 with E. coli (setting [10]); 1.1 with E. faecium (setting [11]); 1.1 in the assay on P. aeruginosa (setting [12]); 0.6 in assay [1] (setting [13]); 1 in the assay with K. pneumoniae (setting [14]); 1.4 in the assay on E. cloacae (setting [15]). Moreover, the fold induction at 50 µM in assay [2] (setting [16]) is 1.3.

For `CC[C@H](C)[C@H]1O[C@]2(CC[C@@H]1C)C[C@@H]1C[C@@H](C/C=C(\C)[C@@H](O[C@H]3C[C@H](OC)[C@@H](O[C@H]4C[C@H](OC)[C@@H](O)[C@H](C)O4)[C@H](C)O3)[C@@H](C)/C=C/C=C3\CO[C@@H]4[C@H](O)C(C)=C[C@@H](C(=O)O1)[C@]34O)O2` [Ivermectin], the “AK-based Prestwick Library Screening Results: E. coli (increase in extracellular AK activity)” value in the assay on E. coli (planktonic E. coli, 384-well, […]) is reported as 1.3. The “AK-based Prestwick Library Screening Results: E. faecium (increase in extracellular AK activity)” value in the assay with E. faecium (planktonic E. faecium, 384-well, […]) was found to be 1.2. For the same compound, the “AK-based Prestwick Library Screening Results: P. aeruginosa (increase in extracellular AK activity)” value with P. aeruginosa (planktonic P. aeruginosa, 384-well, […]) is recorded as 1.0. In addition, the “AK-based Prestwick Library Screening Results: S. aureus (increase in extracellular AK activity)” value in assay [1] (planktonic S. aureus, 384-well, […]) was found to be 2.1. Also, in the assay with K. pneumoniae (planktonic K. pneumoniae, 384-well, […]), the “AK-based Prestwick Library Screening Results: K. pneumoniae (increase in extracellular AK activity)” value was 1.0. In addition, the “AK-based Prestwick Library Screening Results: E. cloacae (increase in extracellular AK activity)” value with E. cloacae (planktonic E. cloacae, 384-well, […]) was 1.6. Moreover, in assay [2] (planktonic A. baumannii, 384-well, […]), the “AK-based Prestwick Library Screening Results: A. baumannii (increase in extracellular AK activity)” value was determined as 1.5.
